Results published in US8580812B2, “Heteroaryl amide analogues as P2X7 antagonists” (H. Lundbeck A/S, priority 2007, dated 2013).

What follows are molecules tested against T1, P2X7 (Homo sapiens, UniProt Q99572) (assay: High Throughput P2X7 Calcium Mobilization Assay (Example 4A), antagonist activity). Conditions: SH-SY5Y cells, 50% decrease in fluorescence response of cells exposed to 80 μM BzATP.
T1 construct: host or cells: SH-SY5Y
T1 sequence (Q99572 1-595): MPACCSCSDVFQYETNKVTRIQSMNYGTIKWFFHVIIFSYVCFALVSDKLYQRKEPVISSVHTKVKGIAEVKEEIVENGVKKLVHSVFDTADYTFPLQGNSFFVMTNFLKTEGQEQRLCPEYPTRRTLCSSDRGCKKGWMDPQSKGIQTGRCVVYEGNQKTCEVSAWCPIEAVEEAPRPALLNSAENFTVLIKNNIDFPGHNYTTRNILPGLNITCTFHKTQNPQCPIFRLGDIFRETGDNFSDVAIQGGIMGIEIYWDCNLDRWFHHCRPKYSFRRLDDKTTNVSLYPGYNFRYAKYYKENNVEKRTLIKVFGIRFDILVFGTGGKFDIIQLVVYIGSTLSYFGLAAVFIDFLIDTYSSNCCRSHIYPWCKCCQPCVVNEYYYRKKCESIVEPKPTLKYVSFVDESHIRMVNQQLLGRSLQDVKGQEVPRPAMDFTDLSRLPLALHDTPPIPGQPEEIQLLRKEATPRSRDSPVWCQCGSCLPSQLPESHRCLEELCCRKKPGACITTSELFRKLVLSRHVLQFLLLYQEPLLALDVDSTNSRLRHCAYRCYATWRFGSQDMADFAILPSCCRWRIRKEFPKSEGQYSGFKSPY
Format: cell-based
Experimental: A. High Throughput P2X7 Calcium Mobilization Assay
SH-SY5Y cells, ATCC Number CRL-2266, (American Type Culture Collection, Manassas, Va.) are cultured under DMEM/High medium supplemented with 10% FBS, and 10 mM HEPES (Invitrogen Corp., Carlsbad, Calif.) in 5% CO2 and at 37° C. One day prior to the experiment, cells are plated at a density of 100,000 cells/well in a 96 well black/clear TC plate (Corning® Costar®, Sigma-Aldrich Co., St. Louis, Mo.). At the beginning of the experiment, the culture medium is removed and cells are incubated with 50 μL of 2.3 μM Fluo-4 AM dye (Invitrogen Corp.) in the assay solution (5 mM KCl, 9.6 mM NaH2PO4.H2O, 25 mM HEPES, 280 mM Sucrose, 5 mM Glucose, and 0.5 mM CaCl2; pH is adjusted to 7.4 with NaOH) for an hour at 37° C. After one hour dye incubation, wells are rinsed once with 50 μL assay solution, and are then incubated for an hour at room temperature with 100 μL assay solution containing the test compound. The final concentration of test compound generally ranges from 1 to 2500 nM; for positive control cells, no test compound is added. After the one hour incubation, plates are transferred to a FLIPR^TETRA instrument (Molecular Devices, Sunnyvale, Calif.) for calcium mobilization analysis.
For determination of antagonist activity, 50 μL of P2X7 agonist (2′(3′)-O-(4-benzoyl-benzoyl)adenosine 5′-triphosephate (BzATP; Sigma-Aldrich) in the assay solution is transferred using the FLIPR into the plate, such that the final agonist concentration is 80 μM (about EC50). In negative control cells, 50 μL of assay solution without agonist is added at this stage. The peak fluorescence signal over a 2 minute period is then measured.
First, the average maximum relative fluorescent unit (RFU) response from the negative control wells (no agonist) is subtracted from the maximum response detected for each of the other experimental wells. Second, average maximum RFU response is calculated for the positive control wells (agonist wells). Then, percent inhibition for each compound tested is calculated using the equation: Percent Inhibition=100−100×(Peak Signal in Test Cells/Peak Signal in Control Cells) The % inhibition data is plotted as a function of test compound concentration and test compound IC50 is determined using, for example, KALEIDAGRAPH software (Synergy Software, Reading, Pa.) best fit of the data to the equation: y=m1*(1/(1+(m2/m0)^m3)) where y is the percent inhibition, m0 is […], m1 is the maximum RFU, m2 corresponds to the test compound IC50 (the concentration required to provide a 50% decrease, relative to the response observed in the presence of agonist and without antagonist) and m3 is the Hill coefficient.

IC50, ≤ 2000 nM:
N[C@@H]1CCN(C(=O)c2cc3c(C(=O)NCC4(c5ccc(Cl)cc5)CCCCC4)cccn3n2)C1 [Compound 90, 2-{[(3R)-3-aminopyrrolidin-1-yl]carbonyl}-N-{[1-(4-chlorophenyl)cyclohex-yl]methyl}pyrazolo[1,5-a]pyridine-4-carboxamide]
CN(Cc1cccc(F)c1)Cc1cc2c(C(=O)NCC34CC5CC(CC(C5)C3)C4)cccn2n1 [Compound 69, N-(adamantan-1-ylmethyl)-2-{[(3-fluorobenzyl)(methyl)amino]methyl}pyrazolo [1,5-a]pyridine-4-carboxamide]
N[C@@H]1CCN(C(=O)c2cc3c(C(=O)NCC4(c5cccnc5)CCCCC4)cccn3n2)C1 [Compound 57, 2-{[(3R)-3-aminopyrrolidin-1-yl]carbonyl}-N-[(1-pyridin-3-ylcyclohexyl)methyl] pyrazolo[1,5-a]pyridine-4-carboxamide]
CC(C)CC(CNC(=O)c1cccn2nc(C(=O)N3CCOCC3)cc12)c1ccc(C(F)(F)F)cc1 (stereo not drawn) [Compound 87, N-{4-methyl-2-[4-(trifluoromethyl)phenyl]pentyl}-2-(morpholin-4-ylcarbonyl)pyrazolo [1,5-a]pyridine-4-carboxamide]
CN(CC(F)(F)F)C(=O)c1cc2c(C(=O)NCC34CC5CC(CC(C5)C3)C4)cccn2n1 [Compound 76, 4-N-(adamantan-1-ylmethyl)-2-N-methyl-2-N-(2,2,2-trifluoroethyl)pyrazolo [1,5-a]pyridine-2,4-dicarboxamide]
CN(CCF)C(=O)c1cc2c(C(=O)NCC34CC5CC(CC(C5)C3)C4)cccn2n1 [Compound 74, 4-N-(adamantan-1-ylmethyl)-2-N-(2-fluoroethyl)-2-N-methylpyrazolo[1,5-a]pyridine-2,4-dicarboxamide]
COCCNC(=O)c1cc2c(C(=O)NCC34CC5CC(CC(C5)C3)C4)cccn2n1 [Compound 42, 4-N-(adamantan-1-ylmethyl)-2-N-(2-methoxyethyl)pyrazolo [1,5-a]pyridine-2,4-dicarboxamide]
CC(C)CC(CNC(=O)c1cccn2nc(C(=O)N3CCn4cncc4C3)cc12)c1ccc(C(F)(F)F)cc1 (stereo not drawn) [Compound 88, 2-(5,6-dihydroimidazo[1,5-a]pyrazin-7(8H)-ylcarbonyl)-N-{4-methyl-2-[4-(trifluoromethyl)phenyl]pentyl}pyrazolo[1,5-a]pyridine-4-carboxamide]
CN(Cc1ccccn1)C(=O)c1cc2c(C(=O)NCC34CC5CC(CC(C5)C3)C4)cccn2n1 [Compound 50, 4-N-(adamantan-1-ylmethyl)-2-N-methyl-2-N-(pyridin-2-ylmethyl)pyrazolo[1,5-a]pyridine-2,4-dicarboxamide]
CN(C(=O)c1cc2c(C(=O)NCC34CC5CC(CC(C5)C3)C4)cccn2n1)C1CCOC1 (stereo not drawn) [Compound 28, 4-N-(adamantan-1-ylmethyl)-2-N-methyl-2-N-(tetrahydrofuran-3-yl)pyrazolo[1,5-a]pyridine-2,4-dicarboxamide]
O=C(NCC(F)F)c1cc2c(C(=O)NCC34CC5CC(CC(C5)C3)C4)cccn2n1 [Compound 63, 4-N-(adamantan-1-ylmethyl)-2-N-(2,2-difluoroethyl)pyrazolo [1,5-a]pyridine-2,4-dicarboxamide]
CN(C(=O)c1cc2c(C(=O)NCC34CC5CC(CC(C5)C3)C4)cccn2n1)c1ccncc1 [Compound 39, 4-N-(adamantan-1-ylmethyl)-2-N-methyl-2-N-pyridin-4-ylpyrazolo[1,5-a]pyridine-2,4-dicarboxamide]
O=C(NCC1(c2ccc(Cl)cc2)CCCCC1)c1cccn2nc(C(Cc3ccccc3)C(=O)O)cc12 (stereo not drawn) [Compound 104, 2-[4-({[1-(4-chlorophenyl)cyclohex-yl]methyl}carbamoyl)pyrazolo[1,5-a]pyridin-2-yl]-3-phenyl propanoic acid]
O=C(Cc1cc2c(C(=O)NCC34CC5CC(CC(C5)C3)C4)cccn2n1)NCC(F)F [Compound 60, N-(adamantan-1-ylmethyl)-2-{2-[(2,2-difluoroethyl)amino]-2-oxoethyl}pyrazolo[1,5-a]pyridine-4-carboxamide]
O=C(Cc1cc2c(C(=O)NCC34CC5CC(CC(C5)C3)C4)cccn2n1)NCCF [Compound 59, N-(adamantan-1-ylmethyl)-2-{2-[(2-fluoroethyl)amino]-2-oxoethyl}pyrazolo[1,5-a]pyridine-4-carboxamide]
CN[C@@H]1CCN(C(=O)c2cc3c(C(=O)NCC45CC6CC(CC(C6)C4)C5)cccn3n2)C1 [Compound 46, N-(adamantan-1-ylmethyl)-2-{[(3R)-3-(methylamino)pyrrolidin-1-yl]carbonyl}pyrazolo [1,5-a]pyridine-4-carboxamide]
O=C(NCC1(c2ccc(C(F)(F)F)cc2)CCCCC1)c1cccn2nc(C(=O)N3CCOCC3)cc12 [Compound 94, 2-(morpholin-4-ylcarbonyl)-N-({1-[4-(trifluoromethyl)phenyl]cyclohexyl}methyl) pyrazolo[1,5-a]pyridine-4-carboxamide]
CN(C)[C@@H]1CCN(C(=O)c2cc3c(C(=O)NCC45CC6CC(CC(C6)C4)C5)cccn3n2)C1 [Compound 27, N-(adamantan-1-ylmethyl)-2-{[(3R)-3-(dimethylamino)pyrrolidin-1-yl]carbonyl}pyrazolo [1,5-a]pyridine-4-carboxamide]
CCN(CC)[C@@H]1CCN(C(=O)c2cc3c(C(=O)NCC45CC6CC(CC(C6)C4)C5)cccn3n2)C1 [Compound 31, N-(adamantan-1-ylmethyl)-2-{[(3R)-3-(diethylamino)pyrrolidin-1-yl]carbonyl}pyrazolo [1,5-a]pyridine-4-carboxamide]
N[C@@H]1CCN(C(=O)c2cc3c(C(=O)NCC(CC4CCCCC4)c4ccccc4)cccn3n2)C1 (stereo partly drawn) [Compound 72, 2-{[(3R)-3-aminopyrrolidin-1-yl]carbonyl}-N-(3-cyclohexyl-2-phenylpropyl)pyrazolo [1,5-a]pyridine-4-carboxamide]
CN(CCF)C(=O)c1cc2c(NC(=O)CC34CC5CC(CC(C5)C3)C4)cccn2n1 [Compound 98, 4-[(adamantan-1-ylacetyl)amino]-N-(2-fluoroethyl)-N-methylpyrazolo[1,5-a]pyridine-2-carboxamide]
CN(C(=O)c1cc2c(C(=O)NCC34CC5CC(CC(C5)C3)C4)cccn2n1)C1CCOCC1 [Compound 37, 4-N-(adamantan-1-ylmethyl)-2-N-methyl-2-N-(tetrahydro-2H-pyran-4-yl)pyrazolo[1,5-a]pyridine-2,4-dicarboxamide]
O=C(NC1CCOCC1)c1cc2c(C(=O)NCC34CC5CC(CC(C5)C3)C4)cccn2n1 [Compound 35, 4-N-(adamantan-1-ylmethyl)-2-N-(tetrahydro-2H-pyran-4-yl)pyrazolo[1,5-a]pyridine-2,4-dicarboxamide]
NC(=O)c1ccc(-c2cc3c(C(=O)NCC45CC6CC(CC(C6)C4)C5)cccn3c2)cc1 [Compound 112, N-(adamantan-1-ylmethyl)-2-(4-carbamoylphenyl) indolizine-8-carboxamide]
